Measurements taken from patent US11274106B2, “Topoisomerase inhibitors with antibacterial and anticancer activity” (THE BOARD OF TRUSTEES OF THE UNIVERSITY OF ILLINOIS, priority 2017, dated 2022).
≈ marks a conversion by molar mass, not a printed value. Entries after “also recorded” stand apart in the source; their conditions may differ. Where two headings read alike, the source gives them in different places. Values belong to the molecule of their own block, whether it stands above or below them.

What was measured:
[1] = test system: MDA-MB-231 triple negative breast cancer cells; assay: Antiproliferative SRB assay, MDA-MB-231; type: cell-based; conditions: SRB assay; for IC50: mean ± SEM; for Antiproliferative effect against MDA-MB-231 cells: FIG. 1, 72 hour
Procedure: FIG. 1. […] Cell death measured by SRB assay after 72 hour of compound exposure (n≥3 biological replicates, error bars show SEM). IC50 values given as mean±SEM from ≥3 biological replicates.
To investigate the feasibility of developing a class of antitumor antibiotics based upon the DNM scaffold, the ability of the DNM to exert an antiproliferative effect against MDA-MB-231 breast cancer cells was evaluated.

E. coli = assay: Antibacterial MIC, microbroth dilution, E. coli; type: cell-based; conditions: for MIC: Escherichia coli
Procedure: (§1) To investigate this possibility, the antibacterial effects of the DNM derivatives was assessed against strains of E. coli, S. aureus, and MRSA using the microbroth dilution method (Table 2).

S. aureus = assay: Antibacterial MIC, microbroth dilution, S. aureus; type: cell-based; conditions: for MIC: Staphylococcus aureus
Procedure: as §1

BT-474 = assay: Antiproliferative SRB assay, BT-474; type: cell-based; conditions: Homo sapiens, BT-474, 72 h, Breast cancer, mean ± SEM
From the text: (§2) Topoisomerase inhibitors such as DOX are used as single agent and in combination therapy to treat a wide-range of cancer types.

HCT-116 = assay: Antiproliferative SRB assay, HCT-116; type: cell-based; conditions: Homo sapiens, HCT-116, 72 h, Colon cancer, mean ± SEM
From the text: as §2

HeLa = assay: Antiproliferative SRB assay, HeLa; type: cell-based; conditions: Homo sapiens, 72 h, Ovarian cancer (footnote e), mean ± SEM
From the text: as §2

ES-2 = assay: Antiproliferative SRB assay, ES-2; type: cell-based; conditions: Homo sapiens, ES-2, 72 h, Cervical cancer (footnote f), mean ± SEM
From the text: as §2

IMR32 = assay: Antiproliferative SRB assay, IMR32; type: cell-based; conditions: Homo sapiens, IMR-32, 72 h, Neuroblastoma, mean ± SEM
From the text: as §2

H460 = assay: Antiproliferative SRB assay, H460; type: cell-based; conditions: Homo sapiens, NCI-H460, 72 h, Lung cancer, mean ± SEM
From the text: as §2

HOS = assay: Antiproliferative SRB assay, HOS; type: cell-based; conditions: Homo sapiens, 72 h, Osteosarcoma, mean ± SEM
From the text: as §2

Jurkat = assay: Cell viability Alamar Blue assay, Jurkat; type: cell-based; conditions: Homo sapiens, 72 h, Leukemia, mean ± SEM
From the text: as §2

HL-60 = assay: Cell viability Alamar Blue assay, HL-60; type: cell-based; conditions: Homo sapiens, HL-60, 72 h, Leukemia, mean ± SEM
From the text: as §2

panel of cancer cells = assay: Average over panel of 10 cancer cell lines; type: cell-based; conditions: 72 hour, read-out: Average (mean) IC50 over the cell line panel
From the text: as §2

MRSA = assay: Antibacterial MIC, microbroth dilution, MRSA; type: cell-based, S. aureus; conditions: Staphylococcus aureus, MRSA; microbroth dilution
Procedure: as §1

[2] = Homo sapiens, MDA-MB-231, 72 h, 72 hour compound exposure, read-out: MDA-MB-231 IC50
[3] = Homo sapiens, MDA-MB-231, 72 h, Breast cancer, read-out: 72 hour IC50, MDA-MB-231
[4] = 72 hour compound exposure, read-out: MDA-MB-231 IC50

IC50 [1, 2]: 860 ± 70 nM | MIC (E. coli): 2 µg/mL (≈ 6.42 µM) | MIC (S. aureus): 4 µg/mL (≈ 12.8 µM)
Structure (SMILES): Cc1cc(=O)[nH]c2c3c4c(cc12)c(C)cc(=O)n4C(CN)CO3 (stereo not shown) [Compound 11]

IC50 [1, 3]: 31 ± 3 nM | IC50 [1, 2]: 31 ± 3 nM | MIC (E. coli): 1 µg/mL (≈ 2.41 µM) | MIC (S. aureus): 0.25 µg/mL (≈ 0.602 µM) | IC50 (BT-474): 235 ± 1 nM | IC50 (HCT-116): 23 ± 3 nM | IC50 (HeLa): 46 ± 2 nM | IC50 (H460): 7.2 ± 0.6 nM | IC50 (Jurkat): 69 ± 7 nM | IC50 (HL-60): 94 ± 6 nM | IC50 (panel of cancer cells): 55 nM
Structure (SMILES): Cc1cc(=O)n2c3c(c4c(cc13)c1ccccc1c(=O)n4C)OCC2CN1CCCC1 (stereo not shown) [Compound 22]
IC50 (ES-2): 23 ± 4 nM | IC50 (IMR32): 4.9 ± 0.1 nM | IC50 (HOS): 16 ± 0.4 nM

IC50 [1, 2]: 730 ± 90 nM | MIC (E. coli): > 16 µg/mL | MIC (S. aureus): 1 µg/mL (≈ 3.37 µM) | MIC (MRSA): 0.06 µg/mL (≈ 0.202 µM)
Structure (SMILES): Cc1cc(=O)n(C)c2c3c4c(cc12)c(C)cc(=O)n4CCO3 [Compound 2]
Antiproliferative effect against MDA-MB-231 cells ([1]; listed as 6DNM): produces quantitative cell death; also recorded: equipotent to the clinical trial compound vosoraxin

IC50 [1, 3]: 79 ± 7 nM | IC50 [1, 2]: 79 ± 7 nM | MIC (E. coli): 2 µg/mL (≈ 4.66 µM) | MIC (S. aureus): 0.5 µg/mL (≈ 1.16 µM) | IC50 (BT-474): 1000 ± 100 nM | IC50 (HCT-116): 79 ± 10 nM | IC50 (HeLa): 136 ± 5 nM | IC50 (H460): 24 ± 2 nM | IC50 (Jurkat): 240 ± 40 nM | IC50 (HL-60): 440 ± 130 nM | IC50 (panel of cancer cells): 214 nM
Structure (SMILES): Cc1cc(=O)n2c3c(c4c(cc13)c1ccccc1c(=O)n4C)OCC2CN1CCCCC1 (stereo not shown) [Compound 23]
IC50 (ES-2): 67 ± 8 nM | IC50 (IMR32): 20 ± 0.2 nM | IC50 (HOS): 55 ± 1 nM

IC50 [1, 2]: 1100 ± 200 nM | MIC (E. coli): > 16 µg/mL | MIC (S. aureus): 2 µg/mL (≈ 7.08 µM) | MIC (MRSA): 0.03 µg/mL (≈ 0.106 µM)
Structure (SMILES): Cc1cc(=O)n(C)c2c3c4c(cc12)c(C)cc(=O)n4CO3 [Compound 1]

IC50 [1, 2]: 1600 ± 200 nM | MIC (E. coli): > 32 µg/mL | MIC (S. aureus): 4 µg/mL (≈ 14.2 µM)
Structure (SMILES): Cc1cc(=O)[nH]c2c3c4c(cc12)c(C)cc(=O)n4CCO3 [Compound 10]

Structure (SMILES): Cc1cc(=O)n(C)c2c3c4c(cc12)c(C)cc(=O)n4C(CN)CO3 (stereo not shown) [Compound 19]
IC50 [1, 4]: 4000 ± 800 nM | E. coli MIC (E. coli): >16 µg/mL | S. aureus MIC (S. aureus): 32 µg/mL

Structure (SMILES): Cc1cc(=O)n2c3c(c4c(cc13)c1ccccc1c(=O)n4C)OCC2CN (stereo not shown) [Compound 17]
IC50 [1, 4]: 130 ± 30 nM | E. coli MIC (E. coli): 2 µg/mL | S. aureus MIC (S. aureus): 4 µg/mL

IC50 [1, 2]: > 10000 nM | MIC (E. coli): > 16 µg/mL | MIC (S. aureus): 32 µg/mL (≈ 87.1 µM) | MIC (MRSA): 0.5 µg/mL (≈ 1.36 µM)
Structure (SMILES): CC(=O)NCC1COc2c3c(cc4c(C)cc(=O)n1c24)c(C)cc(=O)n3C (stereo not shown) [Compound 8]

IC50 [1, 3]: 21 ± 2 nM | IC50 (BT-474): 260 ± 70 nM | IC50 (HeLa): 24 ± 9 nM | IC50 (H460): 6.1 ± 1 nM | IC50 (Jurkat): 17 ± 3 nM | IC50 (HL-60): 84 ± 11 nM | IC50 (panel of cancer cells): 55 nM
Structure (SMILES): COc1cccc2c1C(=O)c1c(O)c3c(c(O)c1C2=O)C[C@@](O)(C(=O)CO)C[C@@H]3O[C@H]1C[C@H](N)[C@H](O)[C@H](C)O1 [Doxorubicin, doxorubicin, reference compound]
Antiproliferative effect against MDA-MB-231 cells [1]: sensitive | IC50 (ES-2): 32 ± 3 nM | IC50 (IMR32): 2.9 ± 0.4 nM | IC50 (HOS): 19 ± 7 nM

Structure (SMILES): Cc1cc(=O)n(C)c2c3c4c(cc12)c(C)cc(=O)n4C(CN)CO3 (stereo not shown) [Compound 18]
IC50 [1, 4]: 200 ± 10 nM | E. coli MIC (E. coli): 0.25 µg/mL | S. aureus MIC (S. aureus): 0.5 µg/mL
